According to patent publication EP1192131B1, “METHOD OF INHIBITING AMYLOID PROTEIN AGGREGATION AND IMAGING AMYLOID DEPOSITS USING ISOINDOLINE DERIVATIVES” (Warner-Lambert Company LLC, priority 1999, dated 2000):
“And” between values parts separate entries of the source, which are not always exact repeats. Equal values may be shown once. Read-outs that look alike come from different tables or passages of the source.

Tests used:
Format in all cases: biochemical
Aβ(1-40) [1] = biological target: T1, Aβ(1-40) (Homo sapiens, UniProt P05067); experiment: BASST (Beta-Amyloid Self-seeding, ThioflavinT), inhibition of self-seeded amyloid fibril growth; design: 30 µM soluble Aβ (1-40) in deionized water in assay buffer; details: 30 µM soluble Aβ (1-40), 37°C, 3 to 5 hours, thioflavin T fluorescence, letter in parentheses = lot of compound (no letter = Lot P)
T1 sequence (P05067 672-711): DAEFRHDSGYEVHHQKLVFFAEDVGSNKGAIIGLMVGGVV
Procedure: BASST (Beta-Amyloid Self-seeding, ThioflavinT)
(§1) An assay for inhibitors of self-seeded amyloid fibril growth
Assay Buffer - 50 mM sodium phosphate, pH 7.5, 100 mM NaCl, 0.02% NaN3, 1 M urea (filter and store at 4°C).
Soluble Aβ (1-40) - 2.2 mg/mL in deionized H2O (store in aliquots at -20°C, keep on ice when thawed) will self-seed after 1 week storage. Typically, the solution should be stored until no lag phase is seen in the assay.
Final assay conditions: 30 µM soluble Aβ (1-40) in deionized water in assay buffer. Compound to be tested is dissolved in DMSO, typically 5-50 mM stock, such that the final concentration of DMSO is <1% v/v in the assay.
Assay: Reaction mixture for 50 assays (on ice) comprised of 1 µL of soluble Aβ (1-40) + 13.5 µL assay buffer per assay. The following are the amounts of the components of the reaction mixture that result in each of the 50 assay wells. 50 µL soluble Aβ (1-40) 675 µL assay buffer
• 1) Prepare the reaction mix above by mixing the components and storing on ice. • 2) Pipet 14.5 µL of reaction mixture into each of 50 wells of a polystyrene U-bottom 96-well microtiter plate (Coming 25881-96) on ice. • 3) Add 1.7 µL of diluted compound to be tested to each well in a column of eight, including solvent control. Serial 3-fold dilutions from 1 mM (100 µM final) in assay buffer -urea = 7 dilutions + zero. Each 96-well plate can therefore accommodate 11 samples + 1 Congo Red control (0.039-5 µM final in 2-fold steps). • 4) Seal the plate with aluminum film and incubate for 10 minutes on ice. • 5) Raise the temperature to 37°C and incubate for 3 to 5 hours (depends on the lot of the peptide). • 6) Remove the aluminum film and add 250 µL/well of 5 µM thioflavin T (ThT) [T-3516, Sigma-Aldrich] in 50 mM glycine-NaOH, pH 8.5. Read fluorescence on a plate reader (ex = 440 nm/20 nm; em = 485 nm/20 nm) within 5 minutes.

Aβ (1-40) peptide = biological target: T2, Aβ (1-40) peptide (Homo sapiens, UniProt P05067); experiment: BAPA (Beta-Amyloid Peptide Aggregation, pH 6.0), filtration endpoint assay
T2 construct: 10 µL 0.5 mg/mL Aβ (1-40) peptide in 20% HFIP
T2 sequence (P05067 672-711): as above
Procedure: BAPA (Beta-Amyloid Peptide Aggregation
This assay is used to provide a measure of inhibition by a compound against the aggregation behavior of the beta amyloid peptide.
The purpose of this assay is to provide a higher volume method of assaying the amount of beta amyloid aggregation using an endpoint assay based on filtration. In this assay, hexafluoroisopropanol (HFIP) is used to break down the initial amyloid peptide to a monomer state and use a concentration of 33 µM which is high enough so that aggregation will occur at pH 6.0 in several hours.
β-Amyloid Peptide Aggregation. pH 6 0 (BAPA)
In a 96-well plate (Costar 3794), we add 25 µL 50 mM Phosphate Buffer, pH 6.0, 10 µL 0.5 mg/mL Aβ (1-40) peptide in 20% HFIP + 0.1 µL/assay radioiodinated ^125I Aβ (1-40) [^125I Aβ(1-40)], and 1 µL of the compound to be tested starting at 50 mM with a concentration of DMSO <1%. Then, we incubate for 2 to 4 hours at room temperature. We stop the reaction with 200 µL of 50 mM phosphate buffer, pH 6.0, and filter it through a 0.2 µm 96-well filter plate (Millipore MAGU N22) We wash the filter plate with 100 µL of the same phosphate buffer. Aggregation was detected on a Microbeta counter after impregnating the filters with Meltilex (1450-441) and is corrected for background

Aβ (1-42) = biological target: T3, Aβ (1-42) (Homo sapiens, UniProt P05067); experiment: BATYM assay, Aβ (1-42) aggregation, Thioflavin T fluorescence
T3 construct: Required Aβ (1-42)(California Peptide) was dried from its hexafluoroisopropanol (HFIP) stock solution; purchased California Peptide
T3 sequence (P05067 672-713): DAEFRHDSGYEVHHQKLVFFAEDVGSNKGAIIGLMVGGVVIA
Procedure: Required Aβ (1-42)(California Peptide) was dried from its hexafluoroisopropanol (HFIP) stock solution. The Aβ (1-42) was dissolved in dimethylsulfoxide (DMSO) and then mixed with phosphate buffered saline (PBS) (pH 7.4). The mixed Aβ (1-42) solution was filtered through a […] Omnipore membrane syringe filter (Millipore, Bedford, MA). The compound to be tested in DMSO (50 times concentrate) was put into each well (0.5 µL/well) of a 96-well plate. The Aβ (1-42) solution was added into each well (24.5 µL/well). The plate was centrifuged at 1,000 g for 5 minutes and incubated at 37°C for 1 day (Aβ 1-42; final concentration 100 µM).
After incubation Thioflavin T (ThT) (30 µM) solution in glycine-NaOH buffer (pH 8.5, 50 mM) was added into each well (250 µL/well), fluorescence was measured (ex. 440/20 nm; em 485/20 nm) using a fluorescence plate reader. The inhibitory activity was calculated as the reduction of fluorescence with the following formula: Inhibition (%) = {(F(Aβ)-F(Aβ+compound)}/{F(Aβ)-F (solvent+compound)} × 100 [formula]
The IC50s (concentration of test compound required to cause a 50% inhibition of aggregation) were calculated by a curve fitting program using the following equation. The data were obtained from two different experiments in triplicate. Inhibition (x) = 100-100/{1 + (x/IC50)^n }, [formula] x = concentration of tested compound (M), IC50 = (M), n = Hill coefficient.

Aβ(1-40) [2] = biological target: T1, Aβ(1-40); experiment: BASSR (Beta-Amyloid Self-Seeding Radioassay), inhibition of self-seeded amyloid fibril growth; design: Soluble Aβ(1-40) peptide (Bachem, Torrance, CA); purchased Bachem, Torrance, CA; details: 30 µM soluble Aβ (1-40) + 125I-labeled Aβ(1-40), 37°C, 3 to 5 hours, several values in a cell = repeat values, letter in parentheses = lot of compound (no letter = Lot P), (ppt), (v-shape) flags
Procedure: BASSR (Beta-Amyloid Self-Seeding Radioassay)
as §1
Assay Buffer - 50 mM sodium phosphate, pH 7.5, 100 mM NaCl, 0.02% NaN3, 1 M urea (filter and store at 4°C)
Soluble Aβ(1-40) peptide (Bachem, Torrance, CA) - 2.2 mg/mL in deionized H2O (stored in aliquots at -20°C, keep on ice when thawed) will self-seed after 1 week storage. Typically, the solution should be stored until no lag phase is seen in the assay.
^125I-labeled Aβ (1-40) - 150K-350K cpm/µL in 100% acetonitrile -0.1% trifluoroacetic acid (TFA) -1% β-mercaptoethanol (aliquots stored at -20°C) ^125I-labeled Aβ(1-40) can be made in accordance with the procedure set forth by H. LeVine, III in Neurobiol. Aging, 16:755 (1995), which is hereby incorporated by reference, or this reagent may be purchased from Amersham, Arlington Heights, Illinois.
Final assay conditions: 30 µM soluble Aβ (1-40) in deionized water in assay buffer + 20-50K cpm ^125I-labeled Aβ(1-40) per assay. Compound to be tested is dissolved in dimethylsulfoxide (DMSO), typically 5-50 mM stock, such that the final concentration of DMSO is <1% v/v in the assay.
Assay: Reaction mixture for 50 assays (on ice) is comprised of 0.1-0.2 µL of ^125I-labeled A^125I-labeled Aβ(1-40) + 1 µL of soluble Aβ (1-40) + 13.5 µL assay buffer per assay. The following are the amounts of the components of the reaction mixture sufficient for 50 assay wells. 5-10 µL ^125I-labeled Aβ (1-40) dried down 675 µL assay buffer 50 µL soluble Aβ (1-40)
• 1) Prepare reaction mixture above by mixing components and storing on ice. • 2) Pipet 14.5 µL of reaction mixture into each of 50 wells on a polypropylene U-bottom 96-well microtiter plate on ice (Costar 3794). • 3) Add 1.7 µL, of diluted compound to be tested to each well in a column of eight, including solvent control. Serial 3-fold dilutions from 1 mM (100 µM final) in assay buffer -urea = 7 dilutions + zero. Each 96-well plate can therefore accommodate 11 samples + 1 Congo Red control (0.039-5 µM final in 2-fold steps). • 4) Seal the plate with aluminum film (Beckman 538619) and incubate for 10 minutes on ice. • 5) Raise the temperature to 37°C and incubate for 3 to 5 hours (depending on the lot of the peptide). • 6) Remove the aluminum film and add 200 µL/well of ice cold assay buffer with urea, collecting the radiolabeled fibrils by vacuum filtration through 0.2 µm pore size GVWP filters in 96-well plates (Millipore MAGV N22, Bedford, MA). Determine the radioactivity of the filters using standard methods well-known to those skilled in the art.

[3] = read-out: BASST IC50 (converted)
[4] = Aβ (1-40) 33 µM, pH 6.0, 2 to 4 hours at room temperature; letter in parentheses = lot of compound (no letter = Lot P); read-out: BAPA IC50
[5] = Aβ 1-42 final concentration 100 µM, 37°C, 1 day, letter in parentheses = lot of compound (no letter = Lot P), read-out: BATYM IC50
[6] = read-out: BAPA IC50; Aβ (1-40) 33 µM, pH 6.0, 2 to 4 hours at room temperature; letter in parentheses = lot of compound (no letter = Lot P)
[7] = read-out: BATYM IC50, Aβ 1-42 final concentration 100 µM, 37°C, 1 day, letter in parentheses = lot of compound (no letter = Lot P)

## 4-Methoxy-5-nitro-2-[2-(3,4,5-trimethoxyphenyl)-2,3-dihydro-1H-isoindol-5-ylamino]benzoic acid [Example 3]
Aβ(1-40) [1]; [3]
  IC50: 3 µM and 2.1 µM
Aβ (1-40) peptide; [4]
  IC50: 64 µM
Aβ (1-42); [5]
  IC50: 17.4 µM

## COc1ccc(N2Cc3ccc(Nc4ccccc4C(=O)O)cc3C2)c(OC)c1OC [Example 1, 2-[2-(2,3,4-Trimethoxy-phenyl)-2,3-dihydro-1H-isoindol-5-ylamino]-benzoic acid]
Aβ(1-40) [1]; [3]
  IC50: 2 µM and 1.6 µM and 3 µM (2×) and 15 µM (2×)
Aβ (1-40) peptide; [4]
  IC50: 72 µM
Aβ (1-42); [5]
  IC50: 11.3 µM and 46.4 µM and 59.7 µM

## O=C(O)c1cc([N+](=O)[O-])ccc1Nc1ccc2c(c1)CN(c1ccc(Cl)c(Cl)c1)C2 [Example 5, 2-[2-(3,4-Dichlorophenyl)-2,3-dihydro-1H-isoindol-5-ylamino]-5-nitro-benzoic acid]
Aβ(1-40) [1]; [3]
  IC50: 3 µM
Aβ(1-40) [2]; read-out: BASSR IC50 (converted)
  IC50: 5 µM and 4.1 µM and 3 µM
Aβ (1-42); [5]
  IC50: 11.4 µM

## O=C(O)c1cc([N+](=O)[O-])ccc1Nc1ccc2c(c1)CN(c1cccc(Cl)c1)C2 [Example 11, 2-[2-(3-Chloro-phenyl)-2,3-dihydro-1H-isoindol-5-ylamino]-5-nitro-benzoic acid]
Aβ(1-40) [1]; read-out: BASST IC50
  IC50: 0.8 µM and 1 µM
Aβ (1-40) peptide; [6]
  IC50: > 100 µM
Aβ (1-42); [7]
  IC50: 12.6 µM

## O=C(O)c1ccccc1Nc1ccc2c(c1)CN(c1ccccc1)C2 [Example 13, 2-(2-Phenyl-2,3-dihydro-1H-isoindol-5-ylamino)-benzoic acid]
Aβ(1-40) [2]; read-out: BASSR IC50
  IC50: > 100 µM and 52 µM and 60 µM
Aβ (1-42); [7]
  IC50: 90.2 µM and 60 µM and > 100 µM and 79.7 µM and 83 µM

## O=C(O)c1cc([N+](=O)[O-])ccc1Nc1ccc2c(c1)CN(c1cccc(Cl)c1)C2 [Example 14, 2-[2-(3-Chloro-phenyl)-2,3-dihydro-1H-isoindol-5-ylamino]-5-nitro-benzoic acid]
Aβ(1-40) [1]; read-out: BASST IC50
  IC50: 0.8 µM and 1 µM
Aβ (1-40) peptide; [6]
  IC50: > 100 µM
Aβ (1-42); [7]
  IC50: 12.6 µM

## O=C(O)c1cccnc1Nc1ccc2c(c1)CN(c1ccc(Cl)c(Cl)c1)C2 [Example 24, 2-[2-(3,4-Dichloro-phenyl)-2,3-dihydro-1H-isoindol-5-ylamino]-nicotinic acid]
Aβ(1-40) [1]; read-out: BASST IC50
  IC50: 0.3 µM
Aβ(1-40) [2]; read-out: BASSR IC50
  IC50: 18 µM
